Measurements taken from patent publication US6894052B1, “Diarylalkylpiperazines active on the lower urinary tract” (Recordati S.A. Chemical and Pharmaceutical Company, priority 1997, dated 2005).
Where a name gives a salt, the structure may show the parent alone. Read-outs that look alike come from different tables or passages of the source.

Experiments:
[1] = target: T1, 5-HT2A serotonergic receptors (Rattus norvegicus, UniProt P14842); test: Radioreceptor binding to native 5-HT2A serotonergic receptors ([3H]ketanserin, rat cerebral cortex membranes)
T1 construct: from tissue; host or cells: cerebral cortex of male Sprague Dawley rats, membranes
T1 sequence (P14842 whole entry): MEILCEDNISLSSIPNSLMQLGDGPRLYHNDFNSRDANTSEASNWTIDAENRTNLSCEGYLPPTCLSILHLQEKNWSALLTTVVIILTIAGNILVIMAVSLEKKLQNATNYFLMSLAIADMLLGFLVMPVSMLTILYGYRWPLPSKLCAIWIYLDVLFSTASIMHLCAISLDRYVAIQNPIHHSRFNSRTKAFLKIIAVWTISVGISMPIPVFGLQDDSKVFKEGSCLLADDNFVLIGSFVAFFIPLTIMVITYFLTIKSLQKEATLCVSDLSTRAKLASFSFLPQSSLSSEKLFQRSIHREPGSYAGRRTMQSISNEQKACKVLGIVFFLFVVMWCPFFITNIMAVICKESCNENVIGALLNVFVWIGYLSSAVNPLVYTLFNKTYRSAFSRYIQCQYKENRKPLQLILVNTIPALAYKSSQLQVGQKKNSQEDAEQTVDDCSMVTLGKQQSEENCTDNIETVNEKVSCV
Experimental: Binding studies on native 5-HT2A serotonergic receptors (Craig A. and Kenneth J., Life Sci. 38, 117-127, 1986) were carried out in membranes of rat cerebral cortex. Male Sprague Dawley rats (200-300 g, S D Harlan/Nossan, Italy) were killed by cervical dislocation and cerebral cortexes were excised and immediately frozen in liquid nitrogen and stored at −70° C. until use. Tissues were homogenized (2×20 sec) in 50 volumes of cold 50 mM Tris-HCl buffer pH 7.4, using a Polytron homogenizer (speed 7). Homogenates were centrifuged at 49000×g for 10 min, resuspended in 50 volumes of the same buffer, incubated at 37° C. for 15 min and centrifuged and resuspended twice more. The final pellets were suspended in 100 volumes of 50 mM Tris-HCl buffer pH 7.7. Membranes were incubated in a final volume of 1 ml for 20 min at 37° C. with 0.7-1.3 nM [^3H]ketanserin (5-HT2A receptors), in absence or presence of competing drugs. Non-specific binding was determined in the presence of 2 μM ketanserin. The incubation was stopped by addition of ice-cold 50 mM Tris-HCl buffer and rapid filtration through 0.2% polyethyleneimine pretreated Whatman GF/B or Schleicher & Schuell GF52 filters. The filters are then washed with ice-cold buffer and the radioactivity retained on the filters was counted by liquid scintillation spectrometry.
(§1) The inhibition of specific binding of the radioligands by the tested drugs was analyzed to estimate the IC50 value by using the non-linear curve-fitting program Allfit (De Lean et al., Am. J. Physiol. 235, E97-E102, 1978). The IC50 value is converted to an affinity constant (Ki) by the equation of Cheng & Prusoff (Cheng, Y. C.; Prusoff, W. H. Biochem. Pharmacol. 22, 3099-3108, 1973).

α1 adrenergic receptors = test: Radioreceptor binding to native α1 adrenergic receptors ([3H]prazosin, rat cerebral cortex membranes)
Experimental: Binding studies on native α1 adrenergic receptors were carried out in membranes of rat cerebral cortex. Male Sprague Dawley rats (200-300 g, Charles River, Italy) were killed by cervical dislocation and cerebral cortexes were dissected and immediately frozen and stored at −70° C. until use. Tissue was homogenized (2×20 sec) in 50 volumes of cold 50 mM Tris-HCl buffer pH 7.4, using a Polytron homogenizer (speed 7). Homogenates were centrifuged at 48000×g for 10 min, resuspended in 50 volumes of the same buffer, incubated at 37° C. for 15 min and centrifuged and resuspended twice more. The final pellets were suspended in 100 volumes of 50 mM Tris-HCl buffer pH 7.4, containing 10 μM pargyline and 0.1% ascorbic acid. Membranes were incubated in a final volume of 1 ml for 30 min at 25° C. with 0.1-0.5 nM [^3H]prazosin, in the absence or presence of competing drugs; non-specific binding was determined in the presence of 10 μM phentolamine.
The incubation was stopped by addition of ice-cold 50 mM Tris-HCl buffer and rapid filtration through 0.2% polyethyleneimine-pretreated Whatman GF/B or Schleicher & Schuell GF52 filters. The filters were then washed with ice-cold buffer and the radioactivity retained on the filters counted by liquid scintillation spectrometry.
as §1

[2] = target: T2, human 5-HT1A serotonergic receptor (Homo sapiens, UniProt P08908); test: Radioreceptor binding to recombinant human 5-HT1A receptors ([3H]8-OH-DPAT, HeLa cell membranes)
T2 construct: expressed in transfected cells; host or cells: HeLa (human), stably transfected; cell membranes
T2 sequence (P08908 1-422): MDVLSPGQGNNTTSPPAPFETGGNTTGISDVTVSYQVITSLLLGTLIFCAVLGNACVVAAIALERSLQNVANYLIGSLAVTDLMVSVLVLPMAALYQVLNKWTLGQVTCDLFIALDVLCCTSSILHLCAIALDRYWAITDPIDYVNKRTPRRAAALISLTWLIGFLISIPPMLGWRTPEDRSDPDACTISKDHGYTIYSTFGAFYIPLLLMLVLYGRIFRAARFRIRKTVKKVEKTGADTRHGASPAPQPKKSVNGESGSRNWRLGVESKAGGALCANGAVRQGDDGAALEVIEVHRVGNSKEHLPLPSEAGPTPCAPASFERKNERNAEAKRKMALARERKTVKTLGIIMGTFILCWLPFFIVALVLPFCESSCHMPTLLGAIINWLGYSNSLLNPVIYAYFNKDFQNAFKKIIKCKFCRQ
Experimental: Genomic clone G-21 coding for the human 5-HT1A serotonergic receptor is stably transfected in a human cell line (HeLa). HeLa cells were grown as monolayers in Dulbecco's modified Eagle's medium (DMEM), supplemented with 10% fetal calf serum and gentamicin ([…]), 5% CO2 at 37° C. Cells were detached from the growth flask at 95% confluence by a cell scraper and were lysed in ice-cold 5 mM Tris and 5 mM EDTA buffer (pH 7.4). Homogenates were centrifuged at 40000×g×20 min and pellets were resuspended in a small volume of ice-cold 5 mM Tris and 5 mM EDTA buffer (pH 7.4) and immediately frozen and stored at −70° C. until use. On the day of experiment, cell membranes were resuspended in binding buffer: 50 mM Tris HCl (pH 7.4), 2.5 mM MgCl2, 10 μM pargyline (Fargin et al., Nature 335, 358-360, 1988). Membranes were incubated in a final volume of 1 ml for 30 min at 30° C. with 0.2-1 nM [^3H]8-OH-DPAT, in absence or presence of competing drugs; non-specific binding was determined in the presence of 10 μM 5-HT. The incubation was stopped by addition of ice-cold Tris-HCl buffer and rapid filtration through 0.2% polyethyleneimine-pretreated Whatman GF/B or Schleieher & Schuell GF52 filters.
as §1

[3] = test system: rhythmic bladder voiding contractions; test: Volume-induced rhythmic bladder voiding contractions in anaesthetized rats; format: in vivo, rat; conditions: for ED10min: extrapolated dose inducing 10 min of disappearance of the contractions; for ED50: Rattus norvegicus
Experimental: Female Sprague Dawley rats weighing 225-275 g (Crl: CDo BR, Charles River Italia) were used. The animals were housed with free access to food and water and were maintained on a forced 12 h alternating light-dark cycle at 22-24° C. for at least one week, except during the experiment. The activity on the rhythmic bladder voiding contractions was evaluated according to the method of Dray (J. Pharmacol. Methods, 13:157, 1985), with some modifications as in Guarneri (Pharmacol. Res., 27:173, 1993). Briefly, rats were anesthetized by subcutaneous injection of 1.25 g/kg (5 ml/kg) urethane, after which the urinary bladder was catheterized via the urethra using PE 50 polyethylene tubing filled with physiological saline. The catheter was tied in place with a ligature around the external urethral orifice and was connected with conventional pressure transducers (Statham P23 ID/P23 XL). […] The bladder was then filled via the recording catheter by incremental volumes of warm (37° C.) saline until reflex bladder voiding contractions occurred (usually 0.8-1.5 ml). For intravenous (i.v.) injection of bioactive compounds, PE 50 polyethylene tubing filled with physiological saline was inserted into the jugular vein.
From the cystometrogram, the number of contractions recorded 15 min before (basal values) and after treatment, as well as the mean amplitude of these contractions (mean height of the peaks in mm Hg) was evaluated.
Since most compounds produced an effect that was relatively rapid in onset and led to a complete cessation of bladder contractions, bioactivity was conveniently estimated by measuring the duration of bladder quiescence (i.e., the duration of time during which no contractions occurred). Moreover, the number of animals tested showing a reduction in the number of contractions >30% of that observed in the basal period, was recorded. […] Also computed in this manner were extrapolated doses which induced a reduction of the number of contractions of greater than 30% in 50% of treated rats (ED50, frequency) by the method of Bliss (Bliss C. I., Quart. J. Pharm. Pharmacol. 11, 192-216, 1938). After the suppressive effects of drug injection wore off, the height of the contractile peaks was compared with the height of the peaks previously recorded after the control intravenous administration of vehicle. The potency of the tested compounds (ED50 value, the extrapolated doses inducing a 30% reduction of amplitude of the contractions in 50% of treated rats) was evaluated on a quantal basis by the method of Bliss (Bliss C. I., Quart. J. Pharm. Pharmacol. 11, 192-216, 1938).

[4] = rat cerebral cortex membranes, [3H]ketanserin, read-out: Ki 5-HT2A
[5] = recombinant human receptor in HeLa membranes, [3H]8-OH-DPAT, read-out: Ki 5-HT1A
[6] = intravenous administration, anaesthetized rats
[7] = intravenous administration, anaesthetized rats, extrapolated dose inducing a reduction of the number of contractions >30% in 50% of treated rats, read-out: ED50 (frequency)
[8] = intravenous administration, anaesthetized rats, extrapolated dose inducing 30% reduction of amplitude of the contractions in 50% of treated rats, n.a. = not active, no significant reduction of the height of peaks, read-out: ED50 (amplitude)

Row | Compound | Ki [1, 4] [nM] | Ki (α1 adrenergic receptors) [nM] | Ki [2, 5] [nM] | ED10min [3, 6] [mg/kg] | ED50 [3, 7] [mg/kg] | also measured
1 | COc1ccccc1N1CCN(CCC(c2ccccc2)c2ccccc2)CC1 [Ex. 1, 1-(3,3-diphenylpropyl)-4-(2-methoxyphenyl)piperazine hydrochloride] | 320 | 145 | 3.9 |  |  | 
2 | c1ccc(C(CCN2CCN(c3cccc4c3OCCO4)CC2)c2ccccc2)cc1 [Ex. 2, 1-(3,3-diphenylpropyl)-4-[5-(2,3-dihydro-1,4-benzodioxinyl)]piperazine methanesulphonate] | 159 | 208 | 0.6 |  |  | 
3 | COc1ccccc1N1CCN(CCN(c2ccccn2)c2ccccn2)CC1.Cl [Ex. 5, 1-[N-N-bis-(2-pyridyl)-2-aminoethyl]-4-(2-methoxyphenyl)piperazine hydrochloride] |  |  |  | 0.523 |  | ED50 (frequency) ([3]; intravenous administration, anaesthetized rats, extrapolated dose inducing a reduction of the number of contractions >30% in 50% of treated rats): 0.077 mg/kg
4 | COc1ccccc1N1CCN(CCC(C#N)(c2ccccn2)c2ccccn2)CC1 [Ex. 6, 1-[3-cyano-3,3-bis-(2-pyridyl)propyl]-4-(2-methoxyphenyl)piperazine] |  | 1250 |  | 0.225 | 0.093 | Ki [2]: 13.3 nM
5 | COc1ccccc1N1CCN(CCC(C#N)(c2ccccc2)c2ccccn2)CC1.Cl.Cl (stereo not drawn) [Ex. 7, 1-[3-cyano-3-phenyl-3-(2-pyridyl)propyl]-4-(2-methoxyphenyl)piperazine dihydrochloride] |  | 396 | 7.7 | 0.078 |  | ED50 ([3]; iv, read-out: ED50 (frequency)): 0.018 mg/kg; Ki [1]: 140 nM
6 | COc1ccccc1N1CCN(CCC(c2ccccn2)c2ccccn2)CC1 [Ex. 8, 1-[3,3-bis-(2-pyridyl)propyl]-4-(2-methoxyphenyl)piperazine] | 320 | 191 | 3.97 | 0.074 | 0.0025 | 
7 | COc1ccccc1N1CCN(CCC(c2ccccc2)c2ccccn2)CC1 (stereo not drawn) [Ex. 9, 1-[3-phenyl-3-(2-pyridyl)propyl]-4-(2-methoxyphenyl)piperazine] | 1020 | 268 | 0.62 | 0.077 | 0.025 | 
8 | COc1ccccc1N1CCN(CCN(c2ccccn2)c2ccccc2[N+](=O)[O-])CC1 [Ex. 11, 1-[N-(2-nitrophenyl)-N-(2-pyridyl)-2-aminoethyl]-4-(2-methoxyphenyl)-piperazine] |  | 62.5 | 6.74 | 0.162 | 0.024 | 
9 | COc1ccccc1N1CCN(CCC(C#N)(c2ccccc2)c2ccccc2[N+](=O)[O-])CC1 (stereo not drawn) [Ex. 12, 1-[3-cyano-3-(2-nitrophenyl)-3-phenylpropyl]-4-(2-methoxyphenyl)piperazine] | 790 | 226 |  |  |  | Ki [2]: 1.45 nM
10 | COc1ccccc1N1CCN(CCC(C(N)=O)(c2ccccc2)c2ccccc2[N+](=O)[O-])CC1 (stereo not drawn) [Ex. 13, 1-[3-aminocarbonyl-3-(2-nitrophenyl)-3-phenylpropyl]-4-(2-methoxyphenyl)-piperazine] |  | 365 |  |  | 0.084 | Ki [2]: 2.3 nM
11 | COc1ccccc1N1CCN(CCC(C(N)=O)(c2ccccn2)c2ccccc2[N+](=O)[O-])CC1 (stereo not drawn) [Ex. 17, 1-[3-aminocarbonyl-3-(2-nitrophenyl)-3-(2-pyridyl)propyl]-4-(2-methoxyphenyl)-piperazine] |  | 307 |  |  |  | Ki [2]: 5.18 nM
12 | Cc1c(-c2ccccc2)oc2c(C(=O)OCCN3CCCCC3)cccc2c1=O [Flavoxate, reference compound] |  |  |  |  |  | effect on the amplitude of the bladder contractions (in words) [3, 6]: did not affect the amplitude of the contractions; ED10min ([3]; intravenous administration, anaesthetized rats, in µg/kg): >10000
13 | CN(C)CCCN1c2ccccc2CCc2ccccc21 [Imipramine, reference compound] |  |  |  | > 6 | 4.93 | ED50 [3, 8]: 2.93 mg/kg; effect on the amplitude of the bladder contractions (in words) [3, 6]: did not affect the amplitude of the contractions
14 | CCN(CC)CC#CCOC(=O)C(O)(c1ccccc1)C1CCCCC1 (stereo not drawn) [Oxybutynin, reference compound] |  |  |  | 7.77 | 10 | ED50 [3, 8]: 0.24 mg/kg
